Laboratory results taken from patent publication US20250255882A1, “TREATMENT OF CARDIAC CONDITION RELATED COGNITIVE DYSFUNCTION” (The Trustees of Columbia University in the City of New York, priority 2024, published 2025).

Columns and labels:
[1] = test system: MI mice; experiment: hippocampal FDG metabolism by microPET; type: in vivo, mouse; conditions: treated MI mice; percentage of the FDG uptake in the SHAM mice (SHAM 100±3, MI 70±3)
Excerpt: (§1) FIG. 4A is a schematic representation of a hippocampal brain slice for LTP experiments and the positioning of the stimulating and recording electrodes.
Thereafter, [^18F]fluorodeoxyglucose (FDG) with positron emission tomography (PET) was used to measure energy consumption in neurons, which reflects neuronal communication signals and the integrative local neuronal activity. Deteriorating brain glucose metabolism measured by FDG-PET has been used as a clinical marker for Alzheimer's disease diagnosis. Thus, hippocampal FDG metabolism was evaluated in the experimental groups (FIGS. 4E and 4F).

[2] = test system: mouse model of HF (myocardial infarction, MI); experiment: open field test and elevated plus maze (EPM) test; type: in vivo; conditions: MI mice, treated
Excerpt: FIGS. 2A-2G illustrate a mouse model of heart failure (myocardial infarction) that is associated with cognitive dysfunction. […] One-way analysis of variance (ANOVA) was used to compare the difference between the six groups in FIGS. 2B, 2C, 2E and 2F. Tukey's test was used for multiple comparisons; two-way ANOVA was used in FIG. 2D. […] All statistical tests were two sided with the data derived from biologically independent samples.
Because of the complexity of the clinical manifestation of HF patients, the mouse model of HF (myocardial infarction, MI) was used with reduced ejection fraction to evaluate the mechanisms of CD. The open field test and elevated plus maze (EPM) test were used to evaluate the behavioral phenotypes, and spontaneous exploratory activity in the mice. In the open field test, mice were placed at the center of a chamber and allowed to explore for 6 min. […] In the EPM test, MI mice spent […] time in the open arms of the EPM (FIG. 2B) compared to SHAM (0.22±0.04 versus 0.14±0.02; P<0.05). […] As a control, the effects of a Rycal®, ARM036, was studied.

[3] = test system: mouse model of HF (myocardial infarction, MI); experiment: MWM test (long-term spatial learning and memory) with probe trial; type: in vivo; conditions: MI mice, treated; for target crossings / time spent in the target quadrant: 60-s probe trial day 5; for target crossings: MI 2.4±0.3, SHAM 4.6±0.3; for time spent in the target quadrant: MI 17±1 s, SHAM 25±2 s; for latency to find and reach the hidden platform: day 4 training trials, MI 30±1 s, SHAM 21±2 s
Experimental: One-way analysis of variance (ANOVA) was used to compare the difference between the six groups in FIGS. 2B, 2C, 2E and 2F. Tukey's test was used for multiple comparisons; two-way ANOVA was used in FIG. 2D. […] All statistical tests were two sided with the data derived from biologically independent samples.
A MWM test was performed to assess hippocampal-dependent long-term spatial learning and memory.
A probe trial was performed on day 5 of the MWM test.

[4] = test system: Ca2+-dependent enzymes, Tau and amyloid beta pathway; experiment: Alzheimer's disease-like signaling in hippocampal samples; type: in vivo, mouse; conditions: hippocampi of treated MI mice
Excerpt: Abnormal Ca^2+ regulation can contribute to the activation of Ca^2+-dependent enzymes such as AMP-activated protein kinase (AMPK), cyclin-dependent kinase 5 (CDK5) and enhanced calpain activity. Activation of these enzymes in response to elevated cytosolic Ca^2+ levels are upstream signals of both pTau and amyloid deposits in Alzheimer's disease brains and could be a major factor in the CD observed in HF. […] We also observed an increase in p25 expression, the neurotoxic activator of CDK5, which plays an important role in amyloid precursor protein processing in AD.

[5] = molecular target: T1, hippocampal RyR2 (Mus musculus, UniProt E9Q401); experiment: SDS-PAGE analysis of modified RyR2 and calstabin2 immunoprecipitated from hippocampal RyR2 complex; type: in vivo; conditions: hippocampi of treated MI mice
T1 construct: Hippocampal RyR2 was immunoprecipitated and immunoblotted to detect PTMs; from tissue; host or cells: mouse hippocampus (SHAM / MI mice, treated in vivo)
T1 sequence (E9Q401 whole entry): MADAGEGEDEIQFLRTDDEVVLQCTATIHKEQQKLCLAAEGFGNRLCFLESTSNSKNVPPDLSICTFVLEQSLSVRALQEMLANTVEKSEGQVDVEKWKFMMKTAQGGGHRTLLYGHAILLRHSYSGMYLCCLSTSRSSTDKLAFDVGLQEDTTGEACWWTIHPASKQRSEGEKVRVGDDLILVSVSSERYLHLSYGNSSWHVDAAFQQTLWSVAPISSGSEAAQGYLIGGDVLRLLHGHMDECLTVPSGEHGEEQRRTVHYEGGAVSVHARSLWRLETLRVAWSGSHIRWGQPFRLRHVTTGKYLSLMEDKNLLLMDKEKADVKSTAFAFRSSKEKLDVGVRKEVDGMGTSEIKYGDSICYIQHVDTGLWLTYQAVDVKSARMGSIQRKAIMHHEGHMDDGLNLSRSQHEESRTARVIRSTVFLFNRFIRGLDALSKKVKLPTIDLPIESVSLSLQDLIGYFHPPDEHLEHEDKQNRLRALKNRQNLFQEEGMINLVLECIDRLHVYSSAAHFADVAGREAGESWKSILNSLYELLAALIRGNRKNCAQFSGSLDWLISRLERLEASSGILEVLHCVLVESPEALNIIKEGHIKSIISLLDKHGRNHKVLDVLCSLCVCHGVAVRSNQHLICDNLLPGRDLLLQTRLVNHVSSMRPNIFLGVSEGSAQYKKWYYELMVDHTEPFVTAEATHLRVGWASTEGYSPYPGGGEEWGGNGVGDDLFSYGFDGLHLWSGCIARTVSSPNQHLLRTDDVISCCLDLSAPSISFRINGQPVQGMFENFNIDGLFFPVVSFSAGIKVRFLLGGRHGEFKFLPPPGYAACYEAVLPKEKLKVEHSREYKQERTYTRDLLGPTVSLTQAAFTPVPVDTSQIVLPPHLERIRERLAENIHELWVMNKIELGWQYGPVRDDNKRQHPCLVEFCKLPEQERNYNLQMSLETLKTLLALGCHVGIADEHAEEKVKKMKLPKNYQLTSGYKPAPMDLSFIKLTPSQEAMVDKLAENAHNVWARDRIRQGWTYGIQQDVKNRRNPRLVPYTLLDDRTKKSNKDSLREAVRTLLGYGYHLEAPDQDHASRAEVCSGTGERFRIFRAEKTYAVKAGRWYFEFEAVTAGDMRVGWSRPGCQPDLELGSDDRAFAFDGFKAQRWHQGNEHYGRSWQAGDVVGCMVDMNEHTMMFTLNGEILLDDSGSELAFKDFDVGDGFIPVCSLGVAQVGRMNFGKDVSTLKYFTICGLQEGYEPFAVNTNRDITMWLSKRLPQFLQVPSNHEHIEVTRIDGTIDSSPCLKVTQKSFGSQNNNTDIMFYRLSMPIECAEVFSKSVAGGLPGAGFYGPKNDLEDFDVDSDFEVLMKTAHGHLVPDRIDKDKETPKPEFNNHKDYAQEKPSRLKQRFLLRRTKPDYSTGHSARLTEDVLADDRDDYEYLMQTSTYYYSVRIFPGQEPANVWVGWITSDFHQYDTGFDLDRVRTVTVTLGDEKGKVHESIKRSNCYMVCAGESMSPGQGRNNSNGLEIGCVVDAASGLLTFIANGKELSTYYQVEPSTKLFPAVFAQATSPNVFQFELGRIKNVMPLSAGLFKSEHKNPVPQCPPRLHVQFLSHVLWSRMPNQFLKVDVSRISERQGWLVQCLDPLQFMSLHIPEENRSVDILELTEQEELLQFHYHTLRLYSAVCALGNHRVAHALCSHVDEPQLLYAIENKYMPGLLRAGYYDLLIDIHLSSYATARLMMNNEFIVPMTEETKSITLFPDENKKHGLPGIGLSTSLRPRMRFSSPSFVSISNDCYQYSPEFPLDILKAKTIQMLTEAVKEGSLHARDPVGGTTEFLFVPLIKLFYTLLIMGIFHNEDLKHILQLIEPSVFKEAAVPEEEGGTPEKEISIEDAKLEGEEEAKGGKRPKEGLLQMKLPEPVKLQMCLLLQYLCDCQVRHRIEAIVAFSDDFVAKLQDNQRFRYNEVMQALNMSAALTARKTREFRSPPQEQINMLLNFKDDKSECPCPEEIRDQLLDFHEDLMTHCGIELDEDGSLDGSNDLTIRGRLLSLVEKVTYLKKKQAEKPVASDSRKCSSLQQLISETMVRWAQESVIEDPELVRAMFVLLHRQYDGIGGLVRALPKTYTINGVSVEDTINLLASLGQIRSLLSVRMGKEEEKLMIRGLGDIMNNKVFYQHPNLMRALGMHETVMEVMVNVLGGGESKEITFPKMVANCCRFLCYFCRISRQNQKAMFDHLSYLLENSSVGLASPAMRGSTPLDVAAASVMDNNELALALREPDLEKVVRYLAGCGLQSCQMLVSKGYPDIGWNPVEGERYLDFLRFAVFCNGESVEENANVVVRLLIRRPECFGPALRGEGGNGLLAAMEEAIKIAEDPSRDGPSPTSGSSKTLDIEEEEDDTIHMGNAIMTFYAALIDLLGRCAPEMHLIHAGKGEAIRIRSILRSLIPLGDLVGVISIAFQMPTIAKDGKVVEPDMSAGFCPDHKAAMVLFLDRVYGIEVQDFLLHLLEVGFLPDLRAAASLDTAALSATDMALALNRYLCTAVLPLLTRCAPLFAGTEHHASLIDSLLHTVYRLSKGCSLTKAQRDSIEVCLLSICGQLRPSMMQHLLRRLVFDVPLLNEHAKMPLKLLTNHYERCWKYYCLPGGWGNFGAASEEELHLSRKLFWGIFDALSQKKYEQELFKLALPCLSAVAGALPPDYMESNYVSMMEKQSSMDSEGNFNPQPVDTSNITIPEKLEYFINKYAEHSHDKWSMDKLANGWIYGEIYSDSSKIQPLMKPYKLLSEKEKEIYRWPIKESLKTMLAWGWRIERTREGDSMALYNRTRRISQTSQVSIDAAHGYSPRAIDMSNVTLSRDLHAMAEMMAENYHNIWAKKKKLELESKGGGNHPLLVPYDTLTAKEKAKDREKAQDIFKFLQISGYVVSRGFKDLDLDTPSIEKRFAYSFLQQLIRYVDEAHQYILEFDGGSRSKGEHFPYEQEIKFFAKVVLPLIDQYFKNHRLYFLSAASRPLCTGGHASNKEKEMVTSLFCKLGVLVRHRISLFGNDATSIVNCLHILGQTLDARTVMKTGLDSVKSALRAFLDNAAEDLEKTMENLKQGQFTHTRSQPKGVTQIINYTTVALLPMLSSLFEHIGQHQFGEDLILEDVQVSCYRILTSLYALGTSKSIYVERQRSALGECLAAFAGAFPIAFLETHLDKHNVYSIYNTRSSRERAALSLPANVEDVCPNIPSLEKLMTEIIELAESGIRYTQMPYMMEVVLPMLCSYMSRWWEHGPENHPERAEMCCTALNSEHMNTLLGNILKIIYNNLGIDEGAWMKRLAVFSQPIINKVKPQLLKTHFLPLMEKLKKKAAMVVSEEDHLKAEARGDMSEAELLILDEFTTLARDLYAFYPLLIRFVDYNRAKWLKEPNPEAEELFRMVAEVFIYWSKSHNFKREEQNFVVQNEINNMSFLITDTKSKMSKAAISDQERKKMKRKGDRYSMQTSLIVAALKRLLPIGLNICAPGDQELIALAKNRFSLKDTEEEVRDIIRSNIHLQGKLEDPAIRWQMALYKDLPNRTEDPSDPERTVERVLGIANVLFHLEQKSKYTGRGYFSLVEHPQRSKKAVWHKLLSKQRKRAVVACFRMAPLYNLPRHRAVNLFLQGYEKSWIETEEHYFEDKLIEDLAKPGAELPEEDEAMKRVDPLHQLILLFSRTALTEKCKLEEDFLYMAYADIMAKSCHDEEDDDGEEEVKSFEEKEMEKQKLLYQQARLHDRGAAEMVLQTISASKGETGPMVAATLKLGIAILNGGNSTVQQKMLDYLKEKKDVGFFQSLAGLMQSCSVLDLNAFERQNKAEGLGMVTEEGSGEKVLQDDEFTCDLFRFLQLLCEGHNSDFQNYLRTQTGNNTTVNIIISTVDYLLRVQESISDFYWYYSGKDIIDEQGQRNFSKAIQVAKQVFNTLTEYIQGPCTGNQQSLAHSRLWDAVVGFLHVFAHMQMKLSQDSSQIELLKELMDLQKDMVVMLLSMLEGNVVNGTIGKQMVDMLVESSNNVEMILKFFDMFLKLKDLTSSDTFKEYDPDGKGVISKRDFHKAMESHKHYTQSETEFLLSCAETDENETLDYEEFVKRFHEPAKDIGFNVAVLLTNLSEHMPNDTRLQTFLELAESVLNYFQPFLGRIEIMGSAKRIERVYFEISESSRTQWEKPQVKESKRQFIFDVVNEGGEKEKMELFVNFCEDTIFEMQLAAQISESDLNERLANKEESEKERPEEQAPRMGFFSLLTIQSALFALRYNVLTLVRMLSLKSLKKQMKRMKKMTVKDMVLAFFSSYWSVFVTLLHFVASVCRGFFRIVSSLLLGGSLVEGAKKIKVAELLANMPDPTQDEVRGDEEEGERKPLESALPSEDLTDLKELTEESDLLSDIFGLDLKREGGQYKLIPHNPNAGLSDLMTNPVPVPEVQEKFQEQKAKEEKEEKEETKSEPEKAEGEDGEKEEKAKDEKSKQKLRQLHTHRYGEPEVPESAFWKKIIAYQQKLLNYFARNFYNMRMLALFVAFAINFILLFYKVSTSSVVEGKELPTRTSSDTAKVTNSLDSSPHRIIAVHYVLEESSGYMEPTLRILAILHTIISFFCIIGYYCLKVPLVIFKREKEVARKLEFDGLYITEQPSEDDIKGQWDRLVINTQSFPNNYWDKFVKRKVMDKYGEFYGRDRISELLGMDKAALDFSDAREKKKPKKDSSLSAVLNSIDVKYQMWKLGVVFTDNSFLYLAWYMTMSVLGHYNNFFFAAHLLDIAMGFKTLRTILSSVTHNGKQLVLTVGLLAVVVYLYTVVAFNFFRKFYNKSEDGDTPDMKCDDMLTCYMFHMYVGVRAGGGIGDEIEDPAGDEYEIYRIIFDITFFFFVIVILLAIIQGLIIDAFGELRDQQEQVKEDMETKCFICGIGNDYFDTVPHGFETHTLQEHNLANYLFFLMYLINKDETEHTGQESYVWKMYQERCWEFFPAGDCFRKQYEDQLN
T1 sequence (Q9Z2I2 whole entry partner): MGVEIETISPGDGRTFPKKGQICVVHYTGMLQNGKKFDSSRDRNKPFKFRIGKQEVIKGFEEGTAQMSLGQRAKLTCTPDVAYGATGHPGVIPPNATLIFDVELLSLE
Experimental: FIGS. 3A-3G illustrate a mouse model of heart failure that is associated with leaky hippocampal RyR2. FIG. 3A is a cryogenic electron microscopy structure of RyR2 (gray, top and side view) showing the location of the Ser2808 in the RY3&4 phosphorylation domain (magenta) and calstabin2 (cyan). RyR2 PKA phosphorylation shifted the channel toward a primed state (yellow) 50.
(§2) PTMs and functional abnormalities of neuronal RyR2 in HF hippocampal samples from MI mice were then evaluated and compared them to SHAM. Hippocampal RyR2 was immunoprecipitated and immunoblotted to detect PTMs.

[6] = test system: MI mice; experiment: long-term potentiation (fEPSPs) in hippocampal slices; type: in vivo, mouse; conditions: slices from treated MI mice; MI decreased LTP versus SHAM
Experimental: as §1
Field excitatory postsynaptic potentials (fEPSPs) were evaluated at the Schaffer collateral using a bipolar electrode placed at the CA3 and recording at the CA1 (FIG. 4A). […] Importantly, MI and treatment with the various compounds after MI had no effect on basal synaptic transmission determined by the input-output curves (I-O; P=0.5; FIG. 4D).

[7] = molecular target: T1, hippocampal RyR2; experiment: single-channel recordings of RyR2 incorporated in planar lipid bilayers; type: in vivo; conditions: hippocampal RyR2 from treated MI mice; for RyR2 mean closed time / RyR2 mean open time: versus untreated MI
Experimental: FIG. 3E are graphs of RyR2 Po, To and Tc in the same groups as FIG. 3D. FIG. 3F is a graph of Ca^2+ leak measured in microsomes from mouse hippocampi of the same groups as FIG. 3D. […] Individual values are shown with the mean±s.e.m. […] Data are derived from biologically independent samples. All statistical tests were two sided.
as §2

[8] = test system: SNARE signaling pathway; experiment: immunoblots of SNAP25, VAMP8, SYT2 and CPLX3 in hippocampi; type: in vivo, mouse; conditions: hippocampi of treated MI mice
Excerpt: FIGS. 7A-7E illustrate altered synaptic protein expression in heart failure. […] The color map represents fold change of proteins (log 2 scale). […] FIGS. 7B and 7C are immunoblots showing total expression of SNAP25, VAMP8, SYT2 and CPLX3, normalized to GAPDH in the hippocampi of controls (n=4) and individuals with HF (n=9). Individual values are shown with the mean±s.e.m. (t-test *P<0.05, control versus individuals with HF). […] Individual values are shown with the mean #s.e.m. […] Data are derived from biologically independent samples. All statistical tests were two sided.
Based on the proteome data in the setting of defective Ca^2+ regulation, four proteins were selected for further study. These four proteins were from the most enriched synaptic transmission pathways that are regulated by Ca^2+, located near the synaptic membranes, involved in learning and memory process, and involved in neurotransmission as potential downstream signals of leaky RyR2. These selections included synaptosomal-associated protein 25 (SNAP25), vesicle-associated membrane protein 8 (VAMP8), synaptogamin-2 (SYT2) and complexin3 (CPLX3). We analyzed their protein expression levels by immunoblot in individuals with HF, and in SHAM and MI mice with or without each of the aforementioned treatments. […]

Compound	hippocampal FDG metabolism [1]	abnormal behaviors in open field test (time center versus periphery) and EPM test (time open-arm versus closed-arm) [2]	target crossings [3]	time spent in the target quadrant [3] [s]	latency to find and reach the hidden platform [3] [s]	changes in AMPK, GSK3B, CaMKII, Tau phosphorylation, p25, BACE1 and βCTF [4]	RyR2 nitrosylation [5]	RyR2 phosphorylation [5]	calstabin2 binding to RyR2 [5]	LTP (hippocampal synaptic plasticity) [6]	RyR2 mean closed time [7]	RyR2 mean open time [7]	RyR2 open probability (Po) ([7]; 150 nM Ca2+ cis, MI 0.17%±0.04%)	expression of SNAP25, VAMP8, SYT2 and CPLX3 [8]	RyR2 oxidation [5]
CC(C)NCC(O)COc1cccc2ccccc12 (stereo not shown) [propranolol]	145±26	prevented	3.5±0.6	26 ± 2	17 ± 3	prevented/attenuated	significantly reduced	significantly reduced	restored calstabin2 binding	prevented MI-induced LTP deficits	increased	decreased	0.018%±0.020%	restored the expression of these proteins to the control levels	
Fc1ccc(Cl)cc1-c1nc(Nc2ccncc2)c2nccnc2n1 [SD-208]	138±22	prevented	4.5±0.6	27 ± 2	15 ± 3	prevented/attenuated	significantly decreased	significantly decreased	enabled rebinding of calstabin2	prevented MI-induced LTP deficits	increased	decreased		restored the expression of these proteins to the control levels	significantly decreased
